Reference: patent US20200010519A1, “NUCLEASE FUSIONS FOR ENHANCING GENOME EDITING BY HOMOLOGY-DIRECTED TRANSGENE INTEGRATION” (INSTITUT NATIONAL DE LA SANTE ET DE LA RECHERCHE …, priority 2017, published 2020)

Legend:
JAK (spacer 54) = assay: Indel mutation patterns by deep sequencing of PCR amplicons, HEK293 cells; assay type: cell-based, human
[1] = system: JAK and PCSK genes, AAVS1 locus; assay: Indel mutation patterns, all three guide RNAs taken together, HEK293 cells; assay type: cell-based, human; conditions: compared to Cas9, three guide RNAs

In the case of `O=c1cc(N2CCOCC2)oc2c(-c3cccc4c3sc3ccccc34)cccc12` [NU7441], the “reduction of the two most frequent mutations observed with Cas9” value (JAK (spacer 54)) is reported as 10 fold and the “indels with increased frequency that were deletions flanked by micro-homologies of 2 or more nucleotides” value [1] is reported as 10 out of 12.
